Values joined by “and” are separate entries in the source; they are usually repeats but may differ in a detail not shown here. Equal entries are not always repeated.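 A five-concentration, 48-hour dose response in 96-well plates underlies each endpoint, interpolated linearly between surrounding concentrations. Abbreviation: GI50, concentration required for 50% inhibition of growth. Definition used: TGI = concentration required for complete inhibition of growth.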
What was measured:
Experiment in all cases: NCI anticancer screen, dose series, 48 h
SK-MEL-5 melanoma = system: SK-MEL-5 melanoma
SF-539 CNS = system: SF-539 CNS
U251 CNS = system: U251 CNS
HCC-2998 colon = system: HCC-2998 colon
HCT-15 colon = system: HCT-15 colon
LOX IMVI melanoma = system: LOX IMVI melanoma
SN12C renal = system: SN12C renal
HOP-92 NSCLC = system: HOP-92 NSCLC
UO-31 renal = system: UO-31 renal
NCI-H460 lung = system: NCI-H460 lung

Row | Structure (SMILES) | TGI (SK-MEL-5 melanoma) | TGI (SF-539 CNS) | TGI (U251 CNS) | TGI (HCC-2998 colon) | TGI (HCT-15 colon) | TGI (LOX IMVI melanoma) | TGI (SN12C renal) | TGI (HOP-92 NSCLC) | TGI (UO-31 renal) | TGI (NCI-H460 lung) | GI50 (SK-MEL-5 melanoma) | GI50 (SF-539 CNS) | GI50 (U251 CNS) | GI50 (HCC-2998 colon) | GI50 (HCT-15 colon) | GI50 (LOX IMVI melanoma) | GI50 (SN12C renal) | GI50 (HOP-92 NSCLC) | GI50 (UO-31 renal) | GI50 (NCI-H460 lung)
1 | COc1ccc(/C=C2\S/C(=N/Nc3nc(-c4ccccc4)cs3)NC2=O)cc1OC | 31.2 µM | 71.4 µM | 87.2 µM | 64.2 µM | 69 µM | 65.6 µM | > 100 µM | 35.2 µM | 51.7 µM | > 100 µM |  |  |  |  |  |  |  |  |  | 
2 | COc1ccc(OC)c(NC(=O)CCC/C(CC(=O)c2ccc(O)c(OC)c2)=N\Nc2ccc([N+](=O)[O-])cc2)c1 | > 100 µM | > 100 µM | > 100 µM | > 100 µM | > 100 µM | > 100 µM | > 100 µM | 85.6 µM | > 100 µM | > 100 µM |  |  |  |  |  |  |  |  |  | 
3 | COc1ccc(C(=O)c2cc3c(N)c(C(=O)Nc4cccc5ccccc45)sc3nc2C)cc1 | 1.4 µM |  | > 50 µM | > 50 µM | > 50 µM | > 50 µM | > 50 µM | > 13.5 µM | > 50 µM | > 22.5 µM | 0.193 µM | 0.126 µM | 0.194 µM | 0.424 µM | 0.192 µM | 0.287 µM | 0.32 µM | 0.181 µM | 0.422 µM | 0.18 µM
4 | C1=C2/CC[C@H](Sc3ccccc3)[C@H]2C2(CCCCC/1)OCCO2 | 59.1 µM | > 100 µM | 63.1 µM | 41.3 µM | > 100 µM | 39.5 µM | > 100 µM | 59.1 µM | > 100 µM | > 100 µM |  |  |  |  |  |  |  |  |  | 
5 | Cc1c2c(nn1C)CSCc1cc(n(C)n1)CSc1cc(c3ccccc3c1)OCCCc1c(C(=O)O)n(C)c3c-2c(Cl)ccc13 | 5.22 µM | 7.33 µM | 13.7 µM | 13.4 µM | 18.9 µM | 12.1 µM | 12.6 µM | 10.2 µM | 17.8 µM | 10.7 µM | 2.2 µM | 1.53 µM | 4.05 µM | 3.15 µM | 5.83 µM | 2.87 µM | 3.38 µM | 2.46 µM | 5.07 µM | 3.23 µM
6 | Cc1ccc(N2C(=O)C3C=CC(n4[nH]c(=O)n(Cc5ccccc5)c4=O)CC3C2=O)cc1 (configuration not stated) | > 100 µM | > 100 µM | > 100 µM | > 100 µM | > 100 µM | > 100 µM | > 100 µM | > 100 µM | > 100 µM | > 100 µM |  |  |  |  |  |  |  |  |  | 
7 | CCOc1cc2ncc(C#N)c(Nc3ccc(OCc4ccccn4)c(Cl)c3)c2cc1NC(=O)/C=C/CN(C)C | 6.21 µM and 4.02 µM | 11.5 µM and > 9.31 µM | 2.29 µM and > 10 µM | 20.1 µM and > 7.88 µM | 7.97 µM and 5.67 µM | 2.29 µM and > 5.73 µM | 4.6 µM and > 10 µM | 22.8 µM and 4.06 µM | 1.57 µM and 2.73 µM | 2.88 µM and > 9.38 µM | 1.14 µM and 1.82 µM | 4.24 µM and > 4.3 µM | 0.899 µM and 1.37 µM | 1.29 µM and > 2.87 µM | 0.475 µM and 0.404 µM | 0.724 µM and 0.82 µM | 0.274 µM and 0.236 µM |  | 0.122 µM and 0.133 µM | 1.01 µM and 0.891 µM
8 | Cn1cc(C2=C(c3cccc(OCC(O)CO)c3)C(=O)NC2=O)c2ccccc21 (configuration not stated) | > 25 µM | > 25 µM | > 25 µM | > 25 µM | > 25 µM | > 25 µM | > 25 µM | > 25 µM | > 25 µM | > 25 µM | > 25 µM | > 25 µM | > 25 µM | > 25 µM | > 25 µM | > 25 µM | > 25 µM | > 25 µM | > 25 µM | > 25 µM
9 | Cc1cccc(C(C)C)c1NC(=O)CC1C(=O)Nc2ccccc2S1(=O)=O (configuration not stated) | 46.4 µM | 14.5 µM | > 51.4 µM | > 56.2 µM | 19.5 µM | > 51.8 µM | > 59.4 µM | 30.7 µM | 84.4 µM | 35.2 µM |  |  |  |  |  |  |  |  |  | 
10 | COc1cc(C(=O)NC2CCN(C)CC2)c(F)cc1Nc1ncc2c(n1)N(C1CCCC1)CC(F)(F)C(=O)N2C | 2.32 µM | 1.3 µM | 14.5 µM | 12.3 µM | 14 µM | 4.96 µM | 14.4 µM | 0.391 µM | 10.5 µM | 12.4 µM | < 0.022 µM | < 0.0181 µM | < 0.0204 µM | 0.0293 µM | < 0.0213 µM | < 0.0186 µM | 0.0604 µM | 0.0326 µM |  | < 0.0168 µM
11 | COc1ccc(/C=C2\CCCC3=C2NC(N)=NC3c2ccc(OC)c(OC)c2)cc1OC (configuration not stated) | > 100 µM | > 100 µM | > 91.9 µM | > 100 µM | > 100 µM | 41.1 µM | > 100 µM | 17.1 µM | > 57.1 µM | > 100 µM | 3.48 µM | 24.4 µM | 2.53 µM | > 100 µM | 9.68 µM | 4.63 µM | > 39.6 µM | 2.61 µM | 11.8 µM | 25.2 µM
12 | CCSCCCN(CCCSCC)CCCSCC | > 100 µM | > 100 µM | > 100 µM | > 100 µM | > 100 µM | > 100 µM | > 100 µM | 80.4 µM | > 100 µM | > 100 µM |  |  |  |  |  |  |  |  |  | 
